Data published in patent US9146240B2, “Systems and methods for determining a C-peptide receptor, C-peptide receptor, and methods of using same” (Saint Louis University, priority 2012, dated 2015).

Target: T1, GPR146 (Homo sapiens, UniProt Q96CH1)
T1 construct: endogenous in cells; host or cells: KATOIII (human stomach carcinoma)
Assay: C-peptide-induced cFos expression in KATOIII cells after siRNA transfection
Format: cell-based
Settings: 1 nmole C-peptide, 1 hour
Method: Once the hierarchical candidates were identified and ranked, KATOIII cells were then transfected with siRNA (Integrated DNA technologies) (111) directed against either GPR107 (control), GPR146 (most likely candidate not yet tested) or eGFP (green fluorescent protein—control) using Lipofectamine […] (Invitrogen). Five hours later, the media was changed to serum free control media (ATCC) and the serum was starved overnight. Twenty-four (24) hours after transfection with siRNA, cells were treated with 1 nmole C-peptide (Phoenix Pharmaceuticals) for 1 hour, then lysed and RNA were isolated using an RNeasy Kit (Qiagen). RNA was used as a template from the production of cDNA, and changes in cFos expression were determined using RT-PCR (BioRad 2x iQ SyberGreen Master Mix, using a BioRad CFX real time system). […] As this produced the desired negative response (113), GPR146 was the target GPCR (115). The receptiveness of GPR146 to C-peptide has since been verified by additional conventional tests

T1 sequence (Q96CH1 whole entry): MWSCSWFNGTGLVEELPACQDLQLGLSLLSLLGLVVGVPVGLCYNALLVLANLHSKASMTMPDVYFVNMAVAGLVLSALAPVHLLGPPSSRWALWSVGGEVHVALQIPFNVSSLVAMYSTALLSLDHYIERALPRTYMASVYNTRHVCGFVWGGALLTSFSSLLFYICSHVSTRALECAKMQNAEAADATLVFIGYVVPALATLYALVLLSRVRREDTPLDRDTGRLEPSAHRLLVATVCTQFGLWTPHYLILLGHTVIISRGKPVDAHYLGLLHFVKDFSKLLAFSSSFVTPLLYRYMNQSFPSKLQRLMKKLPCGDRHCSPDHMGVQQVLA

C-peptide
changes in cFos expression (KATOIII cells transfected with GPR107 siRNA (control)): increase in cFos | changes in cFos expression (KATOIII cells transfected with GPR146 siRNA (GPR146 compromised), FIG. 6): failed to respond | changes in cFos expression (KATOIII cells transfected with Vehicle (Lipofectamine 2000 alone, no siRNA)): increase in cFos | changes in cFos expression (KATOIII cells transfected with sGFPO siRNA (control)): increase in cFos
